What was measured:
[1] = test system: L-succinylaminoacylase disclosed in Patent Document 3; assay: Comparative experiment for enzymatic activity (ii), enzyme of Patent Document 3 (Example 7); format: biochemical, Geobacillus stearothermophilus NCA 1503 strain; conditions: 4 hours, 50° C., pH 7.5, cobalt acetate
Experimental: (§1) Each of N-succinyl-DL-4-bromophenylalanine, N-succinyl-DL-biphenylalanine, N-succinyl-DL-3,4-dichlorophenylalanine, N-succinyl-DL-cyclohexylglycine, and N-succinyl-DL-tert-leucine synthesized in the above (3) was used to prepare an amino acid solution of 10% by weight (pH 7.5). Mixed solution of 0.25 ml of 0.1M HEPES-NaOH buffer (pH 7.5), 0.025 ml of 0.1M cobalt acetate solution, 0.5 ml of each amino acid solution and 4.2 ml of distilled water was prepared. To the resulting solution was added 0.025 ml of a solution of the L-succinylaminoacylase disclosed in Example 1 of Patent Document 3 made into 5 mg/ml or a solution of the L-succinylaminoacylase of the present invention prepared in the above Example 1 made into 5 mg/ml. The resulting reaction solution was subjected to a reaction for 4 hours with stirring at 50° C. After completion of the reaction, a sample was collected therefrom and subjected to an HPLC measurement under the same condition as in Example 2 to calculate the conversion rate into each of the L-amino acids corresponding to N-succinyl-DL-4-bromophenylalanine, N-succinyl-DL-biphenylalanine, N-succinyl-DL-3,4-dichlorophenylalanine, N-succinyl-DL-cyclohexylglycine, and N-succinyl-DL-tert-leucine.

[2] = test system: L-succinylaminoacylase of the present invention; assay: Comparative experiment for enzymatic activity (ii), enzyme of the present invention (Example 7); format: biochemical, Geobacillus stearothermophilus IFO 12983 strain; conditions: 4 hours, 50° C., pH 7.5, cobalt acetate
Experimental: as §1

[3] = test system: L-succinylaminoacylase of the present invention; assay: Hydrolysis of N-succinyl-DL-amino acid to L-amino acid by L-succinylaminoacylase, HPLC (Examples 2 and 3); format: biochemical, Geobacillus stearothermophilus IFO 12983 strain; conditions: for Yield (%) of corresponding L-amino acid: 10% by weight substrate, 96 hours, same condition as in Example 2 (57° C., 0.5 mM CoCl2)
Experimental: The N-succinyl-DL-tert-leucine synthesized in the above (1) was dissolved in distilled water and its pH was adjusted using 0.1N sodium hydroxide (manufactured by Nacalai tesque) to prepare a 5% by weight solution of N-succinyl-DL-tert-leucine (pH 7 to 8). […] This reaction solution was kept at 57° C. for 144 hours with stirring.
Column: Inertsil ODS-2 (particle size: 5 μm; 4.6 mm inner diameter×250 mm length) manufactured by GL Science
Eluant: aqueous solution of phosphate (pH 2.3)/acetonitrile for HPLC=80:20
Column temperature: 40° C.
The reaction was carried out for 96 hours under the same condition as in Example 2 using N-succinyl-DL-valine, N-succinyl-DL-phenylalanine, N-succinyl-DL-tryptophan, N-succinyl-DL-asparagine, N-succinyl-DL-serine, N-succinyl-DL-tyrosine, or N-succinyl-DL-cyclohexylglycine synthesized in the above (2) and (3) instead of N-succinyl-DL-tert-leucine. However, concentration of each N-succinyl-DL-amino acid was made 10% by weight. After completion of the reaction, a sample was collected therefrom and subjected an HPLC measurement under the same condition as in Example 2 to calculate the conversion rate into each L-amino acid corresponding to N-succinyl-DL-valine, N-succinyl-DL-phenylalanine, N-succinyl-DL-tryptophan, N-succinyl-DL-asparagine, N-succinyl-DL-serine, N-succinyl-DL-tyrosine, and N-succinyl-DL-cyclohexylglycine.

[4] = test system: L-succinylaminoacylase of the present invention and N-succinylamino acid racemase; assay: Synthesis of L-tert-leucine using L-succinylaminoacylase and N-succinylamino acid racemase (i) (Example 4); format: biochemical, Geobacillus stearothermophilus; conditions: 1% by weight substrate, racemase prepared in (1) added, 90 hours; 100% is the theoretically highest yield
Experimental: The reaction was carried out for 90 hours under the same condition as in Example 2 except that the concentration of the N-succinyl-DL-tert-leucine solution was made 1% by weight and that 0.1 ml of a 9.6 mg/ml solution of N-succinylamino acid racemase prepared in the above (1) was previously added to the reaction solution. After completion of the reaction, the sample was collected therefrom and subjected to an HPLC measurement under the same condition as in Example 2 to calculate the yield of L-tert-leucine whereupon the yield was not lower than 90% and the value being nearly equal to 100% which is the theoretically highest yield was achieved.

[5] = test system: L-succinylaminoacylase of the present invention; assay: Comparative experiment for enzymatic activity (i), with racemase (Example 6); format: biochemical, Geobacillus stearothermophilus IFO 12983 strain; conditions: 5% by weight substrate, racemase (2), 50° C., up to 144 hours, FIG. 3
Experimental: The N-succinyl-DL-tert-leucine synthesized in the above (1) was dissolved in distilled water and its pH was adjusted using 0.1N sodium hydroxide (manufactured by Nacalai tesque) to prepare a 5% by weight solution of N-succinyl-DL-tert-leucine (pH 7 to 8). To 10 ml of this solution were added 0.5 mM (final concentration) of CoCl2 and 0.1 ml of the N-succinylamino acid racemase in the above (2) prepared in 10 mg/ml. To the resulting solution was added 0.1 ml of the L-succinylaminoacylase disclosed in Example 1 of Patent Document 3 made into 2.5 mg/ml or a solution of the L-succinylaminoacylase of the present invention prepared in the above Example 1 and made into 2.5 mg/ml. The prepared reaction solution was kept at 50° C. for 144 hours with stirring. The sample was collected after 24 hours, 48 hours, 72 hours and 144 hours from the start of the reaction and subjected to an HPLC measurement to confirm the peaks of succinyl-form compound and free-form compound whereby the synthesis of L-tert-leucine from N-succinyl-DL-tert-leucine was confirmed.

[6] = test system: L-succinylaminoacylase of the present invention and N-succinylamino acid racemase; assay: Synthesis of L-tert-leucine using L-succinylaminoacylase and N-succinylamino acid racemase (ii) (Example 5); format: biochemical; conditions: 1% by weight substrate, racemase prepared in (2) added, up to 120 hours
Experimental: The same reaction as in Example 4 was carried out for 120 hours except that the product prepared in the above (2) was used as an N-succinylamino acid racemase. The sample was collected after 24 hours, 48 hours and 120 hours from the start of the reaction and subjected to an HPLC measurement under the same condition as in Example 2 to confirm the synthesis of L-tert-leucine from N-succinyl-DL-tert-leucine.

[7] = Physical and chemical properties of the L-succinylaminoacylase (temperature stability, optimum temperature, optimum pH); format: physicochemical
Experimental: Physical and chemical properties of the L-succinylaminoacylase of the present invention are as shown in the following (i) to (v).
(iii) Temperature stability: When it is subjected to a heating treatment for 30 minutes, it is stable at 70° C. and is inactivated at 75° C. or higher;
(iv) Optimum temperature: When it is made to react at pH 7 to 8, its action is optimum at the temperature of 55 to 60° C.; and
(v) Optimum pH: When it is made to react at 60° C. for 30 minutes, its action is optimum at pH 7.

[8] = Metal ion dependence of L-succinylaminoacylase activity; format: biochemical
Excerpt: Examples of the divalent or univalent metal ion include Mn^2+, Co^2+, Mg^2+, Ca^2+, Ni^2+ and K^+ and, among them, Co^2+ is particularly preferred. It has been known that, when Co^2+ is used, the activity increased to an extent of twice or more as compared with the case where Zn^2+ is used.

[9] = heating treatment for 30 minutes

Molecule | Conversion rate by L-succinylaminoacylase of Patent Document 3 (%) [1] [%] | Conversion rate by L-succinylaminoacylase of the present invention (%) [2] [%] | Yield (%) of corresponding L-amino acid [3] [%] | other results
O=C(O)CCC(=O)NC(Cc1ccc(Br)cc1)C(=O)O (racemic) [N-succinyl-DL-4-bromophenylalanine] | 97.1 | 97.5 | – | –
NC(=O)CC(NC(=O)CCC(=O)O)C(=O)O (racemic) [N-succinyl-DL-asparagine] | – | – | 42.5 | –
O=C(O)CCC(=O)NC(Cc1ccc(-c2ccccc2)cc1)C(=O)O (racemic) [N-succinyl-DL-biphenylalanine] | 8.8 | 74.1 | – | –
O=C(O)CCC(=O)NC(C(=O)O)C1CCCCC1 (racemic) [N-succinyl-DL-cyclohexylglycine] | 53.6 | 97.3 | 49.2 | –
O=C(O)CCC(=O)NC(Cc1ccc(Cl)c(Cl)c1)C(=O)O (racemic) [N-succinyl-DL-dichlorophenylalanine, N-succinyl-DL-3,4-dichlorophenylalanine] | 82.0 | 83.3 | – | –
O=C(O)CCC(=O)NC(Cc1ccccc1)C(=O)O (racemic) [N-succinyl-DL-phenylalanine] | – | – | 37.5 | –
O=C(O)CCC(=O)NC(CO)C(=O)O (racemic) [N-succinyl-DL-serine] | – | – | 43.4 | –
CC(C)(C)C(NC(=O)CCC(=O)O)C(=O)O (racemic) [N-succinyl-DL-tert-leucine] | 0.1 | 45.7 | – | Yield of L-tert-leucine [4]: ≥ 90%; Yield (conversion rate) of L-tert-leucine ([3]; 5% by weight substrate, 0.5 mM CoCl2, 57° C., pH 7 to 8, up to 144 hours, 50% is the theoretically highest yield): ~50%; Conversion rate from N-succinyl-DL-tert-leucine to L-tert-leucine compared with enzyme of Patent Document 3 [5]: significantly high conversion rate; Yield of L-tert-leucine [6]: ≥ 90%
O=C(O)CCC(=O)NC(Cc1c[nH]c2ccccc12)C(=O)O (racemic) [N-succinyl-DL-tryptophan] | – | – | 31.4 | –
O=C(O)CCC(=O)NC(Cc1ccc(O)cc1)C(=O)O (racemic) [N-succinyl-DL-tyrosine] | – | – | 19.1 | –
CC(C)C(NC(=O)CCC(=O)O)C(=O)O (racemic) [N-succinyl-DL-valine] | – | – | 42.4 | –
L-succinylaminoacylase of the present invention: protein of amino acid sequence SEQ ID No: 2, L-succinylaminoacylase of IFO 12983 strain of Geobacillus stearothermophilus (protein, listed as Geobacillus stearothermophilus) MKEIIQQMKAELWSIFDYLHRHPEISWEEWGTTEFVRRELEREGYRVWTFADCPGVVAEIGDGPFMVGVRSDMDALWQEVNGVWQPNHACGHDAHMTIVLGVAKLLRRIGYEPPGTLRFLFQPAEEKGTGALKLIEKGAVDGMSFLYGVHLRPVQEVKSGYATPAIIHGAAQCIEGRIRGMAAHAARPHLGVNVIEVGSAIVQELGKIHVDPQVPATIKMTRFHAGEKDVNTIPDYAEFSLDLRAQTNEAMEQLVERLRRVVNGVAAIYGAEIELDERTRIVAANPDLDAKRLMEEAIIAVLGEEKCIPPVITSGGEDFHFYAFKKPELKTTMLGLGCDLRPGLHHPQMTFQRDDLLSGIEILARTVINTFALQGEKERVSIAANH | – | – | – | Temperature stability: inactivated at [7, 9]: ≥ 75 °C; Temperature stability: stable at [7, 9]: 70 °C; Optimum pH ([7]; reaction at 60° C. for 30 minutes): 7; Increase of activity with Co^2+ as compared with Zn^2+ [8]: twice or more
